Source: patent US10206394B2, “Herbicidal compounds” (Syngenta Participations AG, priority 2014, dated 2019)
Where two headings read alike, the source gives them in different places.

Legend:
Experiment in all cases: Glasshouse assay for herbicidal activity (pre- and post-emergence), percentage phytotoxicity
Type in all cases: in vivo
[1] = test system: Lolium perenne (LOLPE); settings: Lolium perenne, 250 g/ha, visual assessment (100%=total damage, 0%=no damage)
In short: (§1)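 Pot-grown plants treated one day after sowing (pre-emergence) or at about 12 days (post-emergence); glasshouse at 24/18° C (warm) or 20/16° C (cool species) day/night, 16 h light, 65% humidity. Visual % phytotoxicity (0 = none, 100 = total damage) scored at 15 DAA post or 20 DAA pre.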

[2] = test system: Alopecurus myosuroides (ALOMY); settings: Alopecurus myosuroides, 250 g/ha, visual assessment (100%=total damage, 0%=no damage)
In short: as §1

[3] = test system: Avena fatua (AVEFA); settings: Avena fatua, 250 g/ha, visual assessment (100%=total damage, 0%=no damage)
In short: as §1

[4] = test system: Echinochloa crus-galli (ECHCG); settings: Echinochloa crus-galli, 250 g/ha, visual assessment (100%=total damage, 0%=no damage)
In short: as §1

[5] = post-emergence, 360 h, post-emergence, 15 DAA, read-out: Post-emergence herbicidal activity (percentage phytotoxicity) LOLPE POST
[6] = pre-emergence, 480 h, pre-emergence, 20 DAA, read-out: Pre-emergence herbicidal activity (percentage phytotoxicity) LOLPE PRE
[7] = post-emergence, 360 h, post-emergence, 15 DAA, read-out: Post-emergence herbicidal activity (percentage phytotoxicity) ALOMY POST
[8] = pre-emergence, 480 h, pre-emergence, 20 DAA, read-out: Pre-emergence herbicidal activity (percentage phytotoxicity) ALOMY PRE
[9] = post-emergence, 360 h, post-emergence, 15 DAA, read-out: Post-emergence herbicidal activity (percentage phytotoxicity) AVEFA POST
[10] = pre-emergence, 480 h, pre-emergence, 20 DAA, read-out: Pre-emergence herbicidal activity (percentage phytotoxicity) AVEFA PRE
[11] = post-emergence, 360 h, post-emergence, 15 DAA, read-out: Post-emergence herbicidal activity (percentage phytotoxicity) ECHCG POST
[12] = pre-emergence, 480 h, pre-emergence, 20 DAA, read-out: Pre-emergence herbicidal activity (percentage phytotoxicity) ECHCG PRE

Cc1cc(C)c(C2C(=O)CC(CC(=O)NCc3ccccc3C)C2=O)c(C)c1 (stereo not drawn) [Compound B12]
pest or weed control at 250 g/ha [1, 5]: 90% | pest or weed control at 250 g/ha [1, 6]: 90% | pest or weed control at 250 g/ha [2, 7]: 60% | pest or weed control at 250 g/ha [2, 8]: 70% | pest or weed control at 250 g/ha [3, 9]: 60% | pest or weed control at 250 g/ha [3, 10]: 30% | pest or weed control at 250 g/ha [4, 11]: 90% | pest or weed control at 250 g/ha [4, 12]: 100%

Cc1cc(C)c(C2C(=O)CC(CC(=O)NCc3ccc(Cl)cc3)C2=O)c(C)c1 (stereo not drawn) [Compound B13]
pest or weed control at 250 g/ha [1, 5]: 90% | pest or weed control at 250 g/ha [1, 6]: 90% | pest or weed control at 250 g/ha [2, 7]: 50% | pest or weed control at 250 g/ha [2, 8]: 50% | pest or weed control at 250 g/ha [3, 9]: 70% | pest or weed control at 250 g/ha [3, 10]: 40% | pest or weed control at 250 g/ha [4, 11]: 80% | pest or weed control at 250 g/ha [4, 12]: 90%

Cc1ccc(CNC(=O)CC2CC(=O)C(c3c(C)cc(C)cc3C)C2=O)cc1 (stereo not drawn) [Compound B14]
pest or weed control at 250 g/ha [1, 5]: 90% | pest or weed control at 250 g/ha [1, 6]: 90% | pest or weed control at 250 g/ha [2, 7]: 70% | pest or weed control at 250 g/ha [2, 8]: 70% | pest or weed control at 250 g/ha [3, 9]: 80% | pest or weed control at 250 g/ha [3, 10]: 70% | pest or weed control at 250 g/ha [4, 11]: 90% | pest or weed control at 250 g/ha [4, 12]: 70%

Cc1cc(C)c(C2C(=O)CC(CC(=O)NCc3ccc(C(F)(F)F)cc3)C2=O)c(C)c1 (stereo not drawn) [Compound B15]
pest or weed control at 250 g/ha [1, 5]: 90% | pest or weed control at 250 g/ha [1, 6]: 100% | pest or weed control at 250 g/ha [2, 7]: 70% | pest or weed control at 250 g/ha [2, 8]: 80% | pest or weed control at 250 g/ha [3, 9]: 90% | pest or weed control at 250 g/ha [3, 10]: 80% | pest or weed control at 250 g/ha [4, 11]: 90% | pest or weed control at 250 g/ha [4, 12]: 90%

Cc1cc(C)c(C2C(=O)CC(CC(=O)NCc3ccc(F)cc3)C2=O)c(C)c1 (stereo not drawn) [Compound B16]
pest or weed control at 250 g/ha [1, 5]: 90% | pest or weed control at 250 g/ha [1, 6]: 90% | pest or weed control at 250 g/ha [2, 7]: 70% | pest or weed control at 250 g/ha [2, 8]: 80% | pest or weed control at 250 g/ha [3, 9]: 70% | pest or weed control at 250 g/ha [3, 10]: 30% | pest or weed control at 250 g/ha [4, 11]: 90% | pest or weed control at 250 g/ha [4, 12]: 90%

Cc1cc(C)c(C2C(=O)CC(CC(=O)NCc3ccccc3Cl)C2=O)c(C)c1 (stereo not drawn) [Compound B17]
pest or weed control at 250 g/ha [1, 5]: 70% | pest or weed control at 250 g/ha [1, 6]: 90% | pest or weed control at 250 g/ha [2, 7]: 40% | pest or weed control at 250 g/ha [2, 8]: 20% | pest or weed control at 250 g/ha [3, 9]: 50% | pest or weed control at 250 g/ha [3, 10]: 0% | pest or weed control at 250 g/ha [4, 11]: 70% | pest or weed control at 250 g/ha [4, 12]: 90%

COc1ccc(CNC(=O)CC2CC(=O)C(c3c(C)cc(C)cc3C)C2=O)cc1 (stereo not drawn) [Compound B18]
pest or weed control at 250 g/ha [1, 5]: 100% | pest or weed control at 250 g/ha [1, 6]: 100% | pest or weed control at 250 g/ha [2, 7]: 80% | pest or weed control at 250 g/ha [2, 8]: 70% | pest or weed control at 250 g/ha [3, 9]: 90% | pest or weed control at 250 g/ha [3, 10]: 80% | pest or weed control at 250 g/ha [4, 11]: 90% | pest or weed control at 250 g/ha [4, 12]: 90%

Cc1cc(C)c(C2C(=O)CC(CC(=O)NCc3ccccc3C(F)(F)F)C2=O)c(C)c1 (stereo not drawn) [Compound B19]
pest or weed control at 250 g/ha [1, 5]: 70% | pest or weed control at 250 g/ha [1, 6]: 80% | pest or weed control at 250 g/ha [2, 7]: 50% | pest or weed control at 250 g/ha [2, 8]: 10% | pest or weed control at 250 g/ha [3, 9]: 50% | pest or weed control at 250 g/ha [3, 10]: 20% | pest or weed control at 250 g/ha [4, 11]: 70% | pest or weed control at 250 g/ha [4, 12]: 90%

Cc1cc(C)c(C2C(=O)CC(CC(=O)NCc3cccc([N+](=O)[O-])c3)C2=O)c(C)c1 (stereo not drawn) [Compound B20]
pest or weed control at 250 g/ha [1, 5]: 40% | pest or weed control at 250 g/ha [1, 6]: 70% | pest or weed control at 250 g/ha [2, 7]: 70% | pest or weed control at 250 g/ha [2, 8]: 80% | pest or weed control at 250 g/ha [3, 9]: 80% | pest or weed control at 250 g/ha [3, 10]: 90% | pest or weed control at 250 g/ha [4, 11]: 90% | pest or weed control at 250 g/ha [4, 12]: 90%

Cc1cc(C)c(C2C(=O)CC(CC(=O)NCc3cccc(F)c3)C2=O)c(C)c1 (stereo not drawn) [Compound B21]
pest or weed control at 250 g/ha [1, 5]: 90% | pest or weed control at 250 g/ha [1, 6]: 100% | pest or weed control at 250 g/ha [2, 7]: 80% | pest or weed control at 250 g/ha [2, 8]: 80% | pest or weed control at 250 g/ha [3, 9]: 90% | pest or weed control at 250 g/ha [3, 10]: 50% | pest or weed control at 250 g/ha [4, 11]: 90% | pest or weed control at 250 g/ha [4, 12]: 100%

Cc1cc(C)c(C2C(=O)CC(CC(=O)NCc3ccccc3Br)C2=O)c(C)c1 (stereo not drawn) [Compound B22]
pest or weed control at 250 g/ha [1, 5]: 80% | pest or weed control at 250 g/ha [1, 6]: 90% | pest or weed control at 250 g/ha [2, 7]: 30% | pest or weed control at 250 g/ha [2, 8]: 30% | pest or weed control at 250 g/ha [3, 9]: 20% | pest or weed control at 250 g/ha [3, 10]: 100% | pest or weed control at 250 g/ha [4, 11]: 80% | pest or weed control at 250 g/ha [4, 12]: 90%

Cc1cc(C)c(C2C(=O)CC(CC(=O)NCc3cccc(Br)c3)C2=O)c(C)c1 (stereo not drawn) [Compound B23]
pest or weed control at 250 g/ha [1, 5]: 90% | pest or weed control at 250 g/ha [1, 6]: 100% | pest or weed control at 250 g/ha [2, 7]: 60% | pest or weed control at 250 g/ha [2, 8]: 70% | pest or weed control at 250 g/ha [3, 9]: 70% | pest or weed control at 250 g/ha [3, 10]: 60% | pest or weed control at 250 g/ha [4, 11]: 90% | pest or weed control at 250 g/ha [4, 12]: 90%

Cc1cc(-c2ncc(Cl)s2)cc(C)c1C1C(=O)CC(CC(=O)NC(C)(C)C)C1=O (stereo not drawn) [Compound B24]
pest or weed control at 250 g/ha [1, 5]: 90% | pest or weed control at 250 g/ha [1, 6]: 100% | pest or weed control at 250 g/ha [2, 7]: 90% | pest or weed control at 250 g/ha [2, 8]: 80% | pest or weed control at 250 g/ha [3, 9]: 80% | pest or weed control at 250 g/ha [3, 10]: 80% | pest or weed control at 250 g/ha [4, 11]: 100% | pest or weed control at 250 g/ha [4, 12]: 100%

Cc1cc(C)c(C2CC(=O)C(CC(=O)NC(C)CC(C)C)C2=O)c(C)c1 (stereo not drawn) [Compound B25]
pest or weed control at 250 g/ha [1, 5]: 80% | pest or weed control at 250 g/ha [1, 6]: 90% | pest or weed control at 250 g/ha [2, 7]: 80% | pest or weed control at 250 g/ha [2, 8]: 90% | pest or weed control at 250 g/ha [3, 9]: 80% | pest or weed control at 250 g/ha [3, 10]: 70% | pest or weed control at 250 g/ha [4, 11]: 90% | pest or weed control at 250 g/ha [4, 12]: 90%

Cc1cc(C)c(C2C(=O)CC(CC(=O)NC(C)C(C)(C)C)C2=O)c(C)c1 (stereo not drawn) [Compound B26]
pest or weed control at 250 g/ha [1, 5]: 60% | pest or weed control at 250 g/ha [1, 6]: 70% | pest or weed control at 250 g/ha [2, 7]: 70% | pest or weed control at 250 g/ha [2, 8]: 60% | pest or weed control at 250 g/ha [3, 9]: 60% | pest or weed control at 250 g/ha [3, 10]: 20% | pest or weed control at 250 g/ha [4, 11]: 60% | pest or weed control at 250 g/ha [4, 12]: 70%

C=CCC(C)(C)NC(=O)CC1CC(=O)C(c2c(C)cc(C)cc2C)C1=O (stereo not drawn) [Compound B27]
pest or weed control at 250 g/ha [1, 5]: 70% | pest or weed control at 250 g/ha [1, 6]: 60% | pest or weed control at 250 g/ha [2, 7]: 70% | pest or weed control at 250 g/ha [2, 8]: 30% | pest or weed control at 250 g/ha [3, 9]: 70% | pest or weed control at 250 g/ha [3, 10]: 20% | pest or weed control at 250 g/ha [4, 11]: 40% | pest or weed control at 250 g/ha [4, 12]: 60%

Cc1cc(C)c(C2C(=O)CC(CC(=O)NC(C)CC3CCCC3)C2=O)c(C)c1 (stereo not drawn) [Compound B28]
pest or weed control at 250 g/ha [1, 5]: 50% | pest or weed control at 250 g/ha [1, 6]: 80% | pest or weed control at 250 g/ha [2, 7]: 50% | pest or weed control at 250 g/ha [2, 8]: 50% | pest or weed control at 250 g/ha [3, 9]: 60% | pest or weed control at 250 g/ha [3, 10]: 50% | pest or weed control at 250 g/ha [4, 11]: 70% | pest or weed control at 250 g/ha [4, 12]: 60%

Cc1cc(C)c(C2C(=O)CC(CC(=O)NC(C)(C)c3ccccc3)C2=O)c(C)c1 (stereo not drawn) [Compound B29]
pest or weed control at 250 g/ha [1, 5]: 70% | pest or weed control at 250 g/ha [1, 6]: 80% | pest or weed control at 250 g/ha [2, 7]: 70% | pest or weed control at 250 g/ha [2, 8]: 30% | pest or weed control at 250 g/ha [3, 9]: 60% | pest or weed control at 250 g/ha [3, 10]: 10% | pest or weed control at 250 g/ha [4, 11]: 70% | pest or weed control at 250 g/ha [4, 12]: 80%
